# From patent US6432413B1, “Functional improvements in Fahr disease” (Wayne State University, priority 1998, dated 2002)
# Columns and labels:
# Assay type in all cases: in vivo, human
# [1] = system: patient with Fahr disease; assay: Previous drug treatments of the same Fahr disease patient; details: before the study
# From the text: Prior to initiating and throughout the study, they were maintained on the same doses of baclofen, pergolide, lorazepam, naproxen, diltiazem, probanthiline bromide, and hyoscyamine sulfate. They were placed on isosorbide dinitrate 2 months into the study for ischemic heart disease.
# [2] = Side effects during treatment of the Fahr disease patient; details: 15 mg/kg once daily
# Protocol: (§1) After obtaining baseline measurements and informed consent, the patient was begun on 15 mg/kg of disodium etidronate given once daily for two 6 month periods, separated by a 6 month period off of the drug, which was carried out as an internal control and to allow for normal bone mineralization. Serial neurologic examinations were performed by the same physician, and included three quantitative measurements: counting from 1-20, counting from 20-1, and walking 15 feet and back. Instructions were given with the same amount of encouragement for each of the serial measurements. Duplicate measures of counting 1-20 and walking taken two weeks apart were averaged to produce baseline values. There was little variation between the duplicate measures. Baseline and follow-up videotapes of the neurologic exam and CAT scans, to quantify the amount of cerebral calcification, were obtained in a uniform manner.
# For example, they could button their shirts, which they could not do previously.
# [3] = system: cerebral calcification; assay: Quantitation of cerebral calcification by serial CAT scans
# From the text: FIG. 1 is a series of axial CAT scans and 3-dimensional reconstructions of basal ganglia calcification. Panels A-D show the extent of cerebral calcification on axial CAT scan images showing involvement of the basal ganglia, thalamus, and cerebellum. Panels E-H are 3-dimensional reconstructions of the basal ganglia, thalami, and pineal gland in different projections. The patient is directly facing the viewer in Panel E, turning to the left by 30 degrees in Panel F, and by 60 degrees in Panel G. Panel H is a projection looking from above and behind the patient, in the same orientation as the CAT scans described above. […]
# FIG. 3 is a graph showing quantitation of cerebral calcification. […]
# Quantitative measurements of cerebral calcification were obtained using contiguous regions of calcification, defined as those containing pixels greater than 50 Hounsfield units, on each 3 mm coronal image. […]
# After obtaining baseline measurements and informed consent, the patient was begun on 15 mg/kg of disodium etidronate given once daily for two 6 month periods, separated by a 6 month period off of the drug, which was carried out as an internal control and to allow for normal bone mineralization. Serial neurologic examinations were performed by the same physician, and included three quantitative measurements: counting from 1-20, counting from 20-1, and walking 15 feet and back. […]
# [4] = system: patient with familial, idiopathic cerebral calcinosis of the basal ganglia (Fahr disease); assay: Treatment of a patient with Fahr disease: serial neurologic examinations, timed speech and gait, Blessed Dementia Scale
# From the text: FIG. 2 is a series of graphs showing the effect of treatment on speech and gait. Timed measurements of speech (counting from 1-20 or 20-1) and gait (walking 15 feet and back) were made during two treatment cycles with disodium etidronate. The start and stop times indicate the times at which the medication was begun and discontinued, respectively. Each zero time point for counting 1-20 and walking 15 feet and back represents an average of 2 separate measurements, taken 2 weeks apart.
# The patient is a person with hypertension and osteoarthritis who presented with transient right hemiparesis and dysarthria. […] Their major neurologic disabilities prior to treatment were slowness of gait and speech, rigidity, spasticity, cerebellar ataxia, dystonia, and dysphagia. They scored 6 points out of a possible 37 points on the right side of the Blessed Dementia Scale, which measures memory and concentration (6). A score of 0 points is without error. They had been having frequent emotional outbursts and inappropriate hypersexuality.
# as §1
# [5] = second six month course of treatment
compound,measurement,setting,value
NCC(CC(=O)O)c1ccc(Cl)cc1 (centres unmarked) [baclofen],improvement with previous drug treatment,[1],minimal improvement
CC(O)(P(=O)(O)O)P(=O)(O)O [disodium etidronate],side effects,[2],"no side effects from the medication, except for transient elevations in serum phosphate"
same,"shape and size of the cerebral calcification, qualitative comparison of CAT scans and 3-dimensional reconstructions",[3]; after treatment,did not demonstrate any change
same,"brain calcium content, quantitative measurements from serial CAT scans (density x area)",[3]; before treatment vs after first (6 months) and second (18 months) treatment periods,"did not show any reduction in brain calcium content, but perhaps a small increase"
same,gait and speech after stopping the medication,[4]; 6 month period off of the drug,"significant deterioration in their gait, but little loss in the gains made with their speech"
same,"speech, attention span, emotional outbursts and inappropriate sexual behavior as felt by the patient's family",[4]; after one month on 15 mg/kg once daily,"their speech had become clearer, their attention span improved, and their emotional outbursts and inappropriate sexual behavior ceased"
same,bradykinesia and emotional lability,[4]; after treatment,clearly improved
same,"spasticity, cerebellar ataxia, and dystonia",[4]; after treatment,unchanged
same,Blessed Dementia Scale score,"[4]; eighteen months after beginning treatment, previous score 6, 0 points is without error",2
same,gait and fine motor skills,"[4]; first treatment period, 15 mg/kg once daily","His gait also improved, together with fine motor skills"
same,"increase in the speed of speech and gait (counting 1-20, 20-1, walking 15 feet and back)",[4]; over the first six months of treatment,two-fold increase
same,counting from 1-20,[4]; [5],improvement
same,counting from 20-1,[4]; [5],some deterioration
same,gait,[4]; [5],again improved
same,speech,[4]; [5],did not change appreciably
same,other measurements of the speed of motor movement (rapid finger tapping and knee patting),[4]; videotape before medication vs end of first six month treatment,improved considerably
same,speech (rate and clarity),"[4]; within four months of treatment, 15 mg/kg once daily",their speech became more rapid and clear
carbidopa-levodopa,improvement with previous drug treatment,[1],minimal improvement
CCCN1C[C@H](CSC)C[C@@H]2c3cccc4[nH]cc(c34)C[C@H]21 [pergolide],improvement with previous drug treatment,[1],minimal improvement
O=C1Nc2ccc(Cl)cc2C(c2ccccc2Cl)=NC1O (centres unmarked) [lorazepam],improvement with previous drug treatment,[1],minimal improvement
